ChEMBL document CHEMBL5661943, “ASAP - In vitro antiviral effect” (2024)

How the values were obtained:
[1] = system: Zika virus; experiment: Functional CPE-based assay to measure dose dependent changes in antiviral-drug inhibitory efficacy against Zika virus MR766 in Vero E6 miRFP670 cells. Cells are treated with antiviral candidates that are serially diluted. EC50 is reported via analysis of MTS assay as a readout of CPE. The assay has been performed by KU Leuven.; assay type: organism-based, Chlorocebus sabaeus, Vero C1008; settings: Zika virus; for EC50: Vero C1008
[2] = system: dengue virus type 2; experiment: Functional immunofluorescence assay to measure dose dependent changes in antiviral-drug inhibitory efficacy against Dengue virus type 2 Thailand/16681/84 in Vero E6/TMPRSS2 cells (cotreated with P-gp inhibitor, Elacridar). Cells are treated with antiviral candidates that are serially diluted, following infection, cells are fixed. EC50 is reported via analysis of immunofluorescence staining. The assay has been performed by Icahn School of Medicine at Mount Sinai.; assay type: organism-based, Chlorocebus sabaeus, VeroE6/TMPRSS2
[3] = system: Zika virus; experiment: EC50 is reported via analysis of immunofluorescence staining. The assay has been performed by Icahn School of Medicine at Mount Sinai.; assay type: functional, organism-based, Chlorocebus sabaeus, VeroE6/TMPRSS2; settings: for EC90: P-gp concentration 2 uM, P-gp inhibitor Elacidar
[4] = system: dengue virus type 2; experiment: Functional assay to measure dose dependent changes in antiviral-drug inhibitory efficacy against Dengue virus type 2 New Guinea C in Vero E6 miRFP670 cells (cotreated with P-gp inhibitor, CP100356). Cells are treated with antiviral candidates that are serially diluted, following infection, cells are fixed. EC50 is reported via analysis of fluorescence intensity using high-content imager. The …; assay type: organism-based, Chlorocebus sabaeus, Vero C1008; settings: Dengue virus

SMILES | EC50 [1] | EC50 ([2]; Dengue virus, VeroE6/TMPRSS2) | EC90 ([2]; Dengue virus, VeroE6/TMPRSS2) | EC50 ([3]; Zika virus, VeroE6/TMPRSS2) | EC50 ([4]; Vero C1008) | further results
Clc1ccc2[nH]cc(Cc3ccc(-c4nn[nH]n4)cc3)c2c1 | > 50 µM | 24.6 µM | 34 µM | 39.4 µM | > 50 µM | EC90 ([1]; Vero C1008, Maximum measured 1.604 %, Minimum measured -1.05 %): > 50 µM; EC90 ([3]; Zika virus, VeroE6/TMPRSS2, Baseline response 0 %, Hill slope -2.483, Maximum measured 171.794 %, Maximum response 100 %, Minimum measured 35.965 %, R squared 0.343): > 50 µM; EC90 ([4]; Vero C1008): > 50 µM
O=C(Nc1ccc2c(c1)CNC2)c1cc(Cl)cc(C2CC2)c1 | < 0.391 µM | > 50 µM |  | > 5.56 µM | > 12.5 µM | EC90 ([1]; Vero C1008, Baseline response 0 %, Hill slope -0.16, Maximum measured 19.084 %, Maximum response 100 %, Minimum measured -10.525 %, R squared 0.01): < 0.391 µM; EC90 ([2]; Dengue virus, VeroE6/TMPRSS2, Baseline response 0 %, Hill slope -0.218, Maximum measured 127.968 %, Maximum response 100 %, Minimum measured 35.242 %, P-gp concentration 2 uM, R squared 0.016, P-gp inhibitor Elacidar): > 50 µM; EC90 ([3]; Zika virus, VeroE6/TMPRSS2, Baseline response 0 %, Hill slope -0.303, Maximum measured 133.833 %, Maximum response 100 %, Minimum measured 73.063 %, R squared 0.118): > 5.56 µM; EC90 ([4]; Vero C1008, Baseline response 0 %, Hill slope -18.192, Maximum measured 115.18 %, Maximum response 100 %, Minimum measured 61.318 %, P-gp concentration 500 nM, R squared 0.219, P-gp inhibitor CP100356): > 12.5 µM
O=C(Nc1ccc2c(c1)CNCCC2)c1cc(Cl)cc2[nH]ncc12 | > 50 µM | 26 µM | 45 µM | 47.6 µM | > 1.56 µM | EC90 ([1]; Vero C1008, Baseline response 0 %, Hill slope 0.723, Maximum measured 1.937 %, Maximum response 100 %, Minimum measured -1.308 %, R squared 0.05): > 50 µM; EC90 ([1]; Vero C1008, Maximum measured 5.01 %, Minimum measured -5.78 %): > 50 µM; EC90 ([3]; Zika virus, VeroE6/TMPRSS2, Baseline response 0 %, Hill slope -16.818, Maximum measured 150.619 %, Maximum response 100 %, Minimum measured 30.484 %, R squared 0.241): > 50 µM; EC90 ([4]; Vero C1008, Baseline response 0 %, Hill slope 9.827, Maximum measured 112.729 %, Maximum response 100 %, Minimum measured 86.907 %, P-gp concentration 500 nM, R squared 0.124, P-gp inhibitor CP100356): > 1.56 µM
O=C(Nc1cc(Cl)cc(C(=O)NCc2ccc(-c3nnn[nH]3)cc2)c1)OCc1ccccc1 | > 50 µM | 24.8 µM | 40.9 µM | > 16.7 µM | > 50 µM | EC90 ([1]; Vero C1008, Baseline response 0 %, Hill slope 2.99, Maximum measured 29.669 %, Maximum response 100 %, Minimum measured 0.824 %, R squared 0.934): > 50 µM; EC90 ([3]; Zika virus, VeroE6/TMPRSS2, Maximum measured 73.474 %, Minimum measured 51.372 %): > 16.7 µM; EC90 ([4]; Vero C1008, Maximum measured 125.704 %, Minimum measured 70.659 %, P-gp concentration 500 nM, P-gp inhibitor CP100356): > 50 µM
CC(C)(C)NC(=O)[C@H](Nc1cccc(-c2nn[nH]n2)c1)c1cc(Cl)cc(NC(=O)OCc2ccccc2)c1 | 49.8 µM | > 50 µM |  | 37.4 µM | 50 µM | EC90 ([1]; Vero C1008, Baseline response 0 %, Hill slope 4.346, Maximum measured 50.323 %, Maximum response 100 %, Minimum measured -0.582 %, R squared 0.944): > 50 µM; EC90 ([2]; Dengue virus, VeroE6/TMPRSS2, Maximum measured 98.938 %, Minimum measured 28.549 %, P-gp concentration 2 uM, P-gp inhibitor Elacidar): > 50 µM; EC90 ([3]; Zika virus, VeroE6/TMPRSS2, Baseline response 0 %, Hill slope -8.55, Maximum measured 97.768 %, Maximum response 77.157 %, Minimum measured 5.982 %, R squared 0.78): 48.4 µM; EC90 ([4]; Vero C1008, Baseline response 0 %, Hill slope -29.373, Maximum measured 114.47 %, Maximum response 100 %, Minimum measured 52.367 %, P-gp concentration 500 nM, R squared 0.626, P-gp inhibitor CP100356): > 50 µM
CC(C)c1nc2c(C(=O)Nc3ccc4c(c3)CNC4)cc(Br)cc2[nH]1 | < 0.391 µM | > 16.7 µM |  | > 5.56 µM | > 3.12 µM | EC90 ([1]; Vero C1008, Baseline response 0 %, Hill slope -0.56, Maximum measured 41.831 %, Maximum response 100 %, Minimum measured -11.106 %, R squared 0.026): < 0.391 µM; EC90 ([2]; Dengue virus, VeroE6/TMPRSS2, Maximum measured 259.996 %, Minimum measured 97.005 %, P-gp concentration 2 uM, P-gp inhibitor Elacidar): > 16.7 µM; EC90 ([3]; Zika virus, VeroE6/TMPRSS2, Baseline response 0 %, Hill slope 0.282, Maximum measured 117.995 %, Maximum response 100 %, Minimum measured 67.231 %, R squared 0.042): > 5.56 µM; EC90 ([4]; Vero C1008, Maximum measured 127.324 %, Minimum measured 101.275 %, P-gp concentration 500 nM, P-gp inhibitor CP100356): > 3.12 µM
O=C(Nc1cc(Cl)cc(C(=O)Nc2cccc(C3CCNCC3)c2)c1)OCc1ccccc1 | > 50 µM | 3.24 µM |  | 3.24 µM | 4.04 µM | EC90 ([1]; Vero C1008, Maximum measured 1.3 %, Minimum measured -10.726 %): > 50 µM; EC90 ([2]; Baseline response 0 %, Hill slope -7.018, Maximum measured 136.667 %, Maximum response 100 %, Minimum measured 60.314 %, P-gp concentration 2 uM, R squared 0.441, P-gp inhibitor Elacidar): > 1.85 µM; EC90 ([2]; Dengue virus, VeroE6/TMPRSS2, Baseline response 0 %, Hill slope -0.392, Maximum measured 120.272 %, Maximum response 100 %, Minimum measured 45.482 %, P-gp concentration 2 uM, R squared 0.27, P-gp inhibitor Elacidar): > 3.33 µM; EC50 ([2]; veroe6/tmprss2): > 1.85 µM; EC90 ([3]; Zika virus, VeroE6/TMPRSS2, Maximum measured 120.28 %, Minimum measured 106.347 %): > 1.85 µM; EC90 ([3]; Zika virus, VeroE6/TMPRSS2, Baseline response 0 %, Hill slope -10.935, Maximum measured 129.824 %, Maximum response 100 %, Minimum measured 42.275 %, R squared 0.16): > 3.33 µM; EC50 ([3]; veroe6/tmprss2): > 1.85 µM; EC90 ([4]; Vero C1008, Baseline response 0 %, EC90 CI (lower) 2.724 uM, EC90 CI (upper) 4.009 uM, Hill slope -10.989, Maximum measured 107.904 %, Maximum response 100 %, Minimum measured 0.838 %, P-gp concentration 500 nM, R squared 0.983, P-gp inhibitor CP100356): 4.93 µM
O=C(NS(=O)(=O)C1CC1)c1cc(Cl)ccc1NS(=O)(=O)c1ccc(Oc2ccccc2Cl)cc1 | > 50 µM | 42.5 µM |  | 45.9 µM | 44.5 µM | EC90 ([1]; Vero C1008, Baseline response 0 %, Hill slope 1.706, Maximum measured 45.349 %, Maximum response 100 %, Minimum measured -3.564 %, R squared 0.879): > 50 µM; EC90 ([2]; Dengue virus, VeroE6/TMPRSS2, Baseline response 0 %, Hill slope -20.818, Maximum measured 101.748 %, Maximum response 70 %, Minimum measured 2.339 %, P-gp concentration 2 uM, R squared 0.5, P-gp inhibitor Elacidar): 47.3 µM; EC90 ([3]; Zika virus, VeroE6/TMPRSS2, Baseline response 0 %, Hill slope -22.702, Maximum measured 122.036 %, Maximum response 100 %, Minimum measured 12.187 %, R squared 0.505): > 50 µM; EC90 ([4]; Vero C1008, Baseline response 0 %, Hill slope -56.608, Maximum measured 108.404 %, Maximum response 100 %, Minimum measured 0.137 %, P-gp concentration 500 nM, R squared 0.959, P-gp inhibitor CP100356): 46.3 µM
O=C(O)COc1cccc(NC(=O)c2cc(Cl)cc(NC(=O)OCc3ccccc3)c2)c1 | > 50 µM | > 50 µM |  | > 50 µM | > 50 µM | EC90 ([1]; Vero C1008, Maximum measured -[…], Minimum measured -2.209 %): > 50 µM; EC90 ([2]; Dengue virus, VeroE6/TMPRSS2, Maximum measured 97.013 %, Minimum measured 38.667 %, P-gp concentration 2 uM, P-gp inhibitor Elacidar): > 50 µM; EC90 ([3]; Zika virus, VeroE6/TMPRSS2, Baseline response 0 %, Hill slope 0.101, Maximum measured 106.686 %, Maximum response 100 %, Minimum measured 54.693 %, R squared 0.072): > 50 µM; EC90 ([4]; Vero C1008, Maximum measured 107.555 %, Minimum measured 104.836 %, P-gp concentration 500 nM, P-gp inhibitor CP100356): > 50 µM
CCOc1cccc(-c2ccc(S(=O)(=O)Nc3ccc(Cl)cc3C(=O)O)cc2C)c1 | > 50 µM | 0.175 µM | > 16.7 µM | 2.44 µM | 22.3 µM | EC90 ([1]; Vero C1008, Baseline response 0 %, Hill slope -0.317, Maximum measured 5.247 %, Maximum response 100 %, Minimum measured -4.425 %, R squared 0.236): > 50 µM; EC90 ([3]; Zika virus, VeroE6/TMPRSS2, Baseline response 0 %, Hill slope -0.481, Maximum measured 136.466 %, Maximum response 100 %, Minimum measured 2.895 %, R squared 0.53): > 50 µM; EC90 ([4]; Vero C1008, Baseline response 0 %, Hill slope -31.955, Maximum measured 106.035 %, Maximum response 100 %, Minimum measured 0.035 %, P-gp concentration 500 nM, R squared 0.9, P-gp inhibitor CP100356): 23.9 µM
COC(=O)c1cc(NC(=O)c2cc(Cl)cc(NC(=O)OCc3ccccc3)c2)cc(-c2nnn[nH]2)c1 | > 50 µM | 39.8 µM |  | > 16.7 µM | 43.1 µM | EC90 ([1]; Vero C1008, Maximum measured 4.051 %, Minimum measured -3.87 %): > 50 µM; EC90 ([2]; Dengue virus, VeroE6/TMPRSS2, Baseline response 0 %, Hill slope -17.631, Maximum measured 314.134 %, Maximum response 266.23 %, Minimum measured 4.599 %, P-gp concentration 2 uM, R squared 0.779, P-gp inhibitor Elacidar): 45 µM; EC90 ([3]; Zika virus, VeroE6/TMPRSS2, Maximum measured 163.156 %, Minimum measured 112.225 %): > 16.7 µM; EC90 ([4]; Vero C1008): 49.4 µM
NCc1cccc(CCc2cc(Cl)cc(NC(=O)OCc3ccccc3)c2)c1 | > 50 µM | > 1.85 µM |  | > 50 µM | 7.13 µM | EC90 ([1]; Vero C1008, Maximum measured 1.168 %, Minimum measured -5.971 %): > 50 µM; EC90 ([2]; Dengue virus, VeroE6/TMPRSS2, Maximum measured 240.936 %, Minimum measured 110.203 %, P-gp concentration 2 uM, P-gp inhibitor Elacidar): > 1.85 µM; EC90 ([3]; Zika virus, VeroE6/TMPRSS2, Maximum measured 110.897 %, Minimum measured 60.854 %): > 50 µM; EC90 ([4]; Vero C1008, Baseline response 0 %, EC90 CI (lower) 3.921 uM, EC90 CI (upper) 6.549 uM, Hill slope -6.432, Maximum measured 108.307 %, Maximum response 100 %, Minimum measured 4.257 %, P-gp concentration 500 nM, R squared 0.964, P-gp inhibitor CP100356): 10 µM
